In patent US11267812B2 (Mirati Therapeutics, Inc., priority 2016, dated 2022):

system: Phospho-ERK in NCI-H358 cells expressing KRas G12C; test: Cellular inhibition of KRas G12C by Phospho-ERK measurement in NCI-H358 cells; assay type: cell-based; conditions: Homo sapiens; NCI-H358 cells, 3 hours compound treatment; read-out: IC50 (pERK(Thr202/Tyr204) normalized with GAPDH)
Method: The cellular inhibition of KRAs G12C by exemplary compounds of the present invention was determined by measuring the amount of a downstream marker of KRas activity, phosphorylated ERK (“Phospho-ERK”).
NCI-H358 cells (ATCC CRL-5807) express KRas G12C and were grown in RPMI medium supplemented with 10% fetal bovine serum, penicillin/streptomycin and 10 mM HEPES. Cells were plated in poly-D-Lysine coated 96-well plates at a concentration of 50,000 cells/well and allowed to attach for 8-12 hours. Diluted compounds were then added at a final concentration of 0.5% DMSO. After 3 hours, the medium was removed, 150 μL of 4% formaldehyde was added and the plates were incubated for 20 minutes. The plates were washed with PBS, and permeabilized using 150 μL of ice cold 100% methanol for 10 minutes. Non-specific antibody binding to the plates was blocked using 100 μL Licor Blocking Buffer (Li-Cor Biotechnology, Lincoln Nebr.) for 1 hour at room temperature. Positive control samples and samples lacking cells were parallel processed with test samples as standards.
The amount Phospho-ERK was determined using an antibody specific for the phosphorylated form of ERK and compared to the amount of GAPDH. Primary antibodies used for detection were added as follows: Phospho-ERK (Cell Signaling cs9101) diluted 1:500 and GAPDH (Millipore MAB374) diluted 1:5000 in Licor block+0.05% Tween 20. The plates were incubated for 2 hours at room temperature. The plates were washed with PBS+0.05% Tween 20.
Secondary antibodies used to visualize primary antibodies were added as follows: Anti-rabbit-680 diluted 1:1000 and Anti-mouse-800 diluted 1:1000 in Licor Block+0.050 Tween 20 and incubated for 1 hour at room temperature. The plates were washed with PBS+0.05% o Tween 20. A100 L aliquot of PBS was added to each well and the plates were read on a LICOR AERIUS plate reader.
The pERK(Thr202/Tyr204) signal was normalized with the GAPDH signal and percent of DMSO control values were calculated. IC50 values were generated using a 4 parameter fit of the dose response curve. Key: “A”≥0.001-≤1 μM; “B”[…] and ND=not determined.

Compound	IC50 [nM]
C/C=C/C(=O)N1CCN(c2nc(OC[C@@H]3CCCN3C)nc3c2CCN(c2cccc4ccccc24)C3)CC1CC#N (stereo partly drawn) [Example 263, 2-[1-[(E)-but-2-enoyl]-4-[2-[[(2S)-1-methylpyrrolidin-2-yl]methoxy]-7-(1-naphthyl)-6,8-dihydro-5H-pyrido[3,4-d]pyrimidin-4-yl]piperazin-2-yl]acetonitrile]	1 to 1000
C=CC(=O)N1CCN(c2nc(O[C@H](C)CN(C)C)nc3c2CCN(c2cc(O)cc4ccccc24)C3)CC1 [Example 19, (R)-1-(4-(2-((1-(dimethylamino)propan-2-yl)oxy)-7-(3-hydroxynaphthalen-1-yl)-5,6,7,8-tetrahydropyrido[3,4-d]pyrimidin-4-yl)piperazin-1-yl)prop-2-en-1-one]	1 to 1000
C=CC(=O)N1CCN(c2nc(OC[C@@H]3CCCN3C)nc3c2CCN(c2ccc(F)c4ccccc24)C3)CC1CC#N (stereo partly drawn) [Example 246, 2-[4-[7-(4-fluoro-1-naphthyl)-2-[[(2S)-1-methylpyrrolidin-2-yl]methoxy]-6,8-dihydro-5H-pyrido[3,4-d]pyrimidin-4-yl]-1-prop-2-enoyl-piperazin-2-yl]acetonitrile]	1 to 1000
C=CC(=O)N1CCN(c2nc(OCC3CCN(C)C3)nc3c2CCN(c2cc(O)cc4ccccc24)C3)CC1 (stereo not shown) [Example 89, 1-(4-(7-(3-hydroxynaphthalen-1-yl)-2-((1-methylpyrrolidin-3-yl)methoxy)-5,6,7,8-tetrahydropyrido[3,4-d]pyrimidin-4-yl)piperazin-1-yl)prop-2-en-1-one]	1 to 1000
C=CC(=O)N1CCN(c2nc(OC[C@@H]3CCCN3C)nc3c2CCN(c2cnccc2C(F)(F)F)C3)CC1CC#N (stereo partly drawn) [Example 212, 2-(1-acryloyl-4-(2-(((S)-1-methylpyrrolidin-2-yl)methoxy)-7-(4-(trifluoromethyl)pyridin-3-yl)-5,6,7,8-tetrahydropyrido[3,4-d]pyrimidin-4-yl)piperazin-2-yl)acetonitrile]	1 to 1000
C=CC(=O)N1CCN(c2nc(OC[C@@H]3CCCN3C)nc3c2CCN(c2cc(O)cc4ccccc24)C3)[C@@H](C)C1 [Example 202, 1-((S)-4-(7-(3-hydroxynaphthalen-1-yl)-2-(((S)-1-methylpyrrolidin-2-yl)methoxy)-5,6,7,8-tetrahydropyrido[3,4-d]pyrimidin-4-yl)-3-methylpiperazin-1-yl)prop-2-en-1-one]	1 to 1000
C=CC(=O)N1CCN(c2nc(OC[C@@H]3CCCN3C)nc3c2CCN(c2cncc4ccccc24)C3)CC1CC#N (stereo partly drawn) [Example 260, 2-[4-[7-(4-isoquinolyl)-2-[[(2S)-1-methylpyrrolidin-2-yl]methoxy]-6,8-dihydro-5H-pyrido[3,4-d]pyrimidin-4-yl]-1-prop-2-enoyl-piperazin-2-yl]acetonitrile]	1 to 1000
C=CC(=O)N1CCN(c2nc(OCC3CCN(CCOC)C3)nc3c2CCN(c2cc(O)cc4ccccc24)C3)CC1 (stereo not shown) [Example 103, 1-(4-(7-(3-hydroxynaphthalen-1-yl)-2-((1-(2-methoxyethyl)pyrrolidin-3-yl)methoxy)-5,6,7,8-tetrahydropyrido[3,4-d]pyrimidin-4-yl)piperazin-1-yl)prop-2-en-1-one]	1 to 1000
C=CC(=O)N1CCN(c2nc(OC[C@@H]3CCCN3C)nc3c2CCN(c2ccccc2C(F)(F)F)C3)C[C@@H]1CC#N [Example 237, 2-((S)-1-acryloyl-4-(2-(((S)-1-methylpyrrolidin-2-yl)methoxy)-7-(2-(trifluoromethyl)phenyl)-5,6,7,8-tetrahydropyrido[3,4-d]pyrimidin-4-yl)piperazin-2-yl)acetonitrile 2,2,2-trifluoroacetate]	1 to 1000
C=CC(=O)N1CCN(c2nc(O[C@H](C)CN(C)C)nc3c2CCN(c2cc(O)cc4ccccc24)C3)[C@@H](C)C1 [Example 115, 1-((S)-4-(2-(((R)-1-(dimethylamino)propan-2-yl)oxy)-7-(3-hydroxynaphthalen-1-yl)-5,6,7,8-tetrahydropyrido[3,4-d]pyrimidin-4-yl)-3-methylpiperazin-1-yl)prop-2-en-1-one]	1 to 1000
C=CC(=O)N1CCN(c2nc(OC[C@H]3CCCN3C)nc3c2CCN(c2c(C(F)(F)F)ccc4[nH]ncc24)C3)CC1CC#N (stereo partly drawn) [Example 243, 2-[4-[2-[[(2R)-1-methylpyrrolidin-2-yl]methoxy]-7-[5-(trifluoromethyl)-1H-indazol-4-yl]-6,8-dihydro-5H-pyrido[3,4-d]pyrimidin-4-yl]-1-prop-2-enoyl-piperazin-2-yl]acetonitrile]	1 to 1000
C=CC(=O)N1CCN(c2nc(OCCN3CCC(C)CC3)nc3c2CCN(c2cc(O)cc4ccccc24)C3)CC1 [Example 92, 1-(4-(7-(3-hydroxynaphthalen-1-yl)-2-(2-(4-methylpiperidin-1-yl)ethoxy)-5,6,7,8-tetrahydropyrido[3,4-d]pyrimidin-4-yl)piperazin-1-yl)prop-2-en-1-one]	1 to 1000
C=CC(=O)N1CCN(c2nc(OCCCN3CCCCC3)nc3c2CCN(c2cc(O)cc4ccccc24)C3)CC1 [Example 38, 1-(4-(7-(3-hydroxynaphthalen-1-yl)-2-(3-(piperidin-1-yl)propoxy)-5,6,7,8-tetrahydropyrido[3,4-d]pyrimidin-4-yl)piperazin-1-yl)prop-2-en-1-one]	1 to 1000
C=CC(=O)N1CCN(c2nc(OC[C@@H]3CCCN3C)nc3c2CCN(c2c(C)ccc4cn[nH]c24)C3)CC1CC#N (stereo partly drawn) [Example 238, 2-(1-acryloyl-4-(7-(6-methyl-1H-indazol-7-yl)-2-(((S)-1-methylpyrrolidin-2-yl)methoxy)-5,6,7,8-tetrahydropyrido[3,4-d]pyrimidin-4-yl)piperazin-2-yl)acetonitrile]	1 to 1000
C=CC(=O)N1CCN(c2nc(O[C@H](C)CN3CC[C@H](OC)C3)nc3c2CCN(c2cc(O)cc4ccccc24)C3)CC1 [Example 64, 1-(4-(7-(3-hydroxynaphthalen-1-yl)-2-(((R)-1-((S)-3-methoxypyrrolidin-1-yl)propan-2-yl)oxy)-5,6,7,8-tetrahydropyrido[3,4-d]pyrimidin-4-yl)piperazin-1-yl)prop-2-en-1-one]	1 to 1000
C=CC(=O)N1CCN(c2nc(OCCN(CC)CC)nc3c2CCN(c2cc(O)cc4ccccc24)C3)CC1 [Example 102]	1 to 1000
C=CC(=O)N1CCN(c2nc(OC(C)CCN(C)C)nc3c2CCN(c2cc(O)cc4ccccc24)C3)CC1 (stereo not shown) [Example 21, 1-(4-(2-((4-(dimethylamino)butan-2-yl)oxy)-7-(3-hydroxynaphthalen-1-yl)-5,6,7,8-tetrahydropyrido[3,4-d]pyrimidin-4-yl)piperazin-1-yl)prop-2-en-1-one]	1 to 1000
C=CC(=O)N1CCN(c2nc(OC[C@@H]3CCCN3C)nc3c2CCN(c2cccnc2C(F)(F)F)C3)CC1CC#N (stereo partly drawn) [Example 226, 2-(1-acryloyl-4-(2-(((S)-1-methylpyrrolidin-2-yl)methoxy)-7-(2-(trifluoromethyl)pyridin-3-yl)-5,6,7,8-tetrahydropyrido[3,4-d]pyrimidin-4-yl)piperazin-2-yl)acetonitrile]	1 to 1000
C=CC(=O)N1CCN(c2nc(OCC(C)(C)N(C)C)nc3c2CCN(c2cccc4ccccc24)C3)CC1CC#N (stereo not shown) [Example 269, 2-(1-acryloyl-4-(2-(2-(dimethylamino)-2-methylpropoxy)-7-(naphthalen-1-yl)-5,6,7,8-tetrahydropyrido[3,4-d]pyrimidin-4-yl)piperazin-2-yl)acetonitrile]	1 to 1000
C=CC(=O)N1CCN(c2nc(OCCN(C)C)nc3c2CCN(c2cc(O)cc4ccccc24)C3)[C@@H](C)C1 [Example 116, (S)-1-(4-(2-(2-(dimethylamino)ethoxy)-7-(3-hydroxynaphthalen-1-yl)-5,6,7,8-tetrahydropyrido[3,4-d]pyrimidin-4-yl)-3-methylpiperazin-1-yl)prop-2-en-1-one]	1 to 1000
C=CC(=O)N1CCN(c2nc(OC(C)CN(C)C)nc3c2CCN(c2cc(O)cc4ccccc24)C3)CC1 (stereo not shown) [Example 11, 1-(4-(2-((1-(dimethylamino)propan-2-yl)oxy)-7-(3-hydroxynaphthalen-1-yl)-5,6,7,8-tetrahydropyrido[3,4-d]pyrimidin-4-yl)piperazin-1-yl)prop-2-en-1-one]	1 to 1000
C=CC(=O)N1CCN(c2nc(OC[C@@H]3CCN(C)C3)nc3c2CCN(c2cc(O)cc4ccccc24)C3)CC1CC#N (stereo partly drawn) [Example 179, 2-[4-[7-(3-hydroxy-1-naphthyl)-2-[[(3R)-1-methylpyrrolidin-3-yl]methoxy]-6,8-dihydro-5H-pyrido[3,4-d]pyrimidin-4-yl]-1-prop-2-enoyl-piperazin-2-yl]acetonitrile]	1 to 1000
